PubChem BioAssay AID256 (DTP/NCI, 2004)
Values joined by “and” are separate entries in the source; they are usually repeats but may differ in a detail not shown here. Equal entries are not always repeated. Inconclusive results and toxic doses are left out. The calls were made as follows: active = survival T/C of 150% or more; inactive = T/C below 125% in these data. Non-standard residues stand in square brackets, D forms with d. Residues, ends and D or L forms follow the SMILES beside them. *: point of attachment. Cbz = O=C(OCc1ccccc1)*; Abu = CC[CH](N)C(=O)O

Test system: CD2F1 mice, L1210 leukemia ip, survival T/C
Test: NCI In Vivo Anticancer Drug Screen. Data for tumor model L1210 Leukemia (intraperitoneal) in CD2F1 (CDF1) mice
Details: higher = longer survival
In short: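 Activity against a transplanted murine tumor was judged by comparing the compound group with a vehicle group. The outcome in the treated animals was divided by that in the controls.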

[1] = endpoint: mean survival time, dose: 6.25 mg/kg/injection, schedule: Q01DX009 (ip), vehicle: Klucel (hydroxypropylcellulose) (HPC)
[2] = endpoint: mean survival time, dose: 12.5 mg/kg/injection, schedule: Q01DX009 (ip), vehicle: Klucel (hydroxypropylcellulose) (HPC)
[3] = endpoint: mean survival time, dose: 12.5 mg/kg/injection, schedule: Q01DX009 (ip), vehicle: saline with Tween-80
[4] = endpoint: mean survival time, dose: 25.0 mg/kg/injection, schedule: Q01DX009 (ip), vehicle: Klucel (hydroxypropylcellulose) (HPC)
[5] = endpoint: mean survival time, dose: 25.0 mg/kg/injection, schedule: Q01DX009 (ip), vehicle: saline with Tween-80
[6] = endpoint: mean survival time, dose: 50.0 mg/kg/injection, schedule: Q01DX009 (ip), vehicle: Klucel (hydroxypropylcellulose) (HPC)
[7] = endpoint: mean survival time, dose: 50.0 mg/kg/injection, schedule: Q01DX009 (ip), vehicle: saline with Tween-80
[8] = endpoint: mean survival time, dose: 100.0 mg/kg/injection, schedule: Q01DX009 (ip), vehicle: Klucel (hydroxypropylcellulose) (HPC)
[9] = endpoint: mean survival time, dose: 100.0 mg/kg/injection, schedule: Q01DX009 (ip), vehicle: saline with Tween-80
[10] = endpoint: mean survival time, dose: 100.0 mg/kg/injection, schedule: Q04DX003 (ip), vehicle: saline with Tween-80
[11] = endpoint: mean survival time, dose: 200.0 mg/kg/injection, schedule: Q01DX009 (ip), vehicle: Klucel (hydroxypropylcellulose) (HPC)
[12] = endpoint: mean survival time, dose: 200.0 mg/kg/injection, schedule: Q04DX003 (ip), vehicle: saline with Tween-80
[13] = endpoint: mean survival time, dose: 100.0 mg/kg/injection, schedule: Q04DX003 (ip), vehicle: saline
[14] = endpoint: mean survival time, dose: 400.0 mg/kg/injection, schedule: Q04DX003 (ip), vehicle: saline
[15] = endpoint: mean survival time, dose: 100.0 mg/kg/injection, schedule: Q01DX001 (ip), vehicle: saline with Tween-80
[16] = endpoint: mean survival time, dose: 200.0 mg/kg/injection, schedule: Q01DX001 (ip), vehicle: saline with Tween-80
[17] = endpoint: mean survival time, dose: 400.0 mg/kg/injection, schedule: Q01DX001 (ip), vehicle: saline with Tween-80

Measured: T/C

C(C#CCN1CCOCC1)#CCN1CCOCC1
inactive: [1] 96 % of control | [2] 91 % of control | [3] 95 % of control and 101 % of control | [4] 100 % of control | [5] 95 % of control and 98 % of control | [6] 105 % of control | [7] 93 % of control and 95 % of control | [8] 100 % of control | [9] 88 % of control and 90 % of control and 96 % of control | [10] 102 % of control | [11] 91 % of control | endpoint: mean survival time, dose: 200.0 mg/kg/injection, schedule: Q01DX009 (ip), vehicle: saline with Tween-80 95 % of control (2×) and 96 % of control | [12] 96 % of control | endpoint: mean survival time, dose: 400.0 mg/kg/injection, schedule: Q01DX009 (ip), vehicle: Klucel (hydroxypropylcellulose) (HPC) 97 % of control | endpoint: mean survival time, dose: 400.0 mg/kg/injection, schedule: Q01DX009 (ip), vehicle: saline with Tween-80 95 % of control and 100 % of control and 101 % of control | endpoint: mean survival time, dose: 400.0 mg/kg/injection, schedule: Q04DX003 (ip), vehicle: saline with Tween-80 102 % of control

Nc1ncnc2nc(C(O)C(O)C(O)CO)[nH]c12 (centres undefined)
inactive: endpoint: median survival time, dose: 12.5 mg/kg/injection, schedule: Q01DX005 (ip), vehicle: distilled water + Tween-80 102 % of control | endpoint: median survival time, dose: 25.0 mg/kg/injection, schedule: Q01DX005 (ip), vehicle: distilled water + Tween-80 96 % of control | endpoint: median survival time, dose: 50.0 mg/kg/injection, schedule: Q01DX005 (ip), vehicle: distilled water + Tween-80 98 % of control | endpoint: median survival time, dose: 100.0 mg/kg/injection, schedule: Q01DX005 (ip), vehicle: distilled water + Tween-80 98 % of control | endpoint: median survival time, dose: 200.0 mg/kg/injection, schedule: Q01DX005 (ip), vehicle: distilled water + Tween-80 106 % of control

CCCCOC(=O)C1(N)CCCC1
inactive: [13] 110 % of control | [14] 102 % of control

Cc1ccc2ncccc2c1[N+](=O)[O-]
inactive: [10] 101 % of control | [12] 95 % of control

CC1(C)N=C(N)N=C(N)N1c1cccc(/C=C/c2ccc([N+](=O)[O-])cc2)c1
inactive: endpoint: mean survival time, dose: 100.0 mg/kg/injection, schedule: Q04DX002 (ip), vehicle: Klucel (hydroxypropylcellulose) (HPC) 103 % of control | endpoint: mean survival time, dose: 200.0 mg/kg/injection, schedule: Q04DX002 (ip), vehicle: Klucel (hydroxypropylcellulose) (HPC) 107 % of control | endpoint: mean survival time, dose: 400.0 mg/kg/injection, schedule: Q04DX002 (ip), vehicle: Klucel (hydroxypropylcellulose) (HPC) 95 % of control

CC(C)(CC/C(=N\Nc1ccc([N+](=O)[O-])cc1[N+](=O)[O-])c1ccccc1)C1OCCO1
inactive: endpoint: mean survival time, dose: 50.0 mg/kg/injection, schedule: Q04DX002 (ip), vehicle: saline with Tween-80 90 % of control | endpoint: mean survival time, dose: 100.0 mg/kg/injection, schedule: Q04DX002 (ip), vehicle: saline with Tween-80 98 % of control | endpoint: mean survival time, dose: 200.0 mg/kg/injection, schedule: Q04DX002 (ip), vehicle: saline with Tween-80 94 % of control

CCC(NC(=O)OCc1ccccc1)C(=O)N1CCCC1C(=O)OC (centres undefined) (Cbz-[Abu]-Pro-OMe; configuration not given here)
inactive: [15] 103 % of control | [16] 104 % of control | [17] 103 % of control

CC(=O)[O][Pb]([O]C(C)=O)([c]1ccccc1)[c]1ccccc1
inactive: [1] 89 % of control and 97 % of control | [2] 87 % of control and 100 % of control | [4] 96 % of control | [6] 90 % of control and 95 % of control | [8] 92 % of control and 97 % of control | [11] 96 % of control

Cn1c(=O)[nH]c2c(-c3ccccc3)n[nH]c2c1=O
inactive: endpoint: median survival time, dose: 25.0 mg/kg/injection, schedule: Q04DX003 (ip), vehicle: saline with Tween-80 90 % of control | endpoint: median survival time, dose: 100.0 mg/kg/injection, schedule: Q04DX003 (ip), vehicle: saline with Tween-80 90 % of control | endpoint: median survival time, dose: 200.0 mg/kg/injection, schedule: Q04DX003 (ip), vehicle: saline with Tween-80 90 % of control

O=C1c2ccccc2-c2cc(Br)c(NC(Cl)Cl)cc21
inactive: [15] 104 % of control | [16] 106 % of control | [17] 103 % of control

BrCC[Se]c1ccccc1
inactive: endpoint: mean survival time, dose: 3.12 mg/kg/injection, schedule: Q01DX009 (ip), vehicle: saline with Tween-80 105 % of control | endpoint: mean survival time, dose: 6.25 mg/kg/injection, schedule: Q01DX009 (ip), vehicle: saline with Tween-80 111 % of control | [3] 102 % of control | [5] 115 % of control | [7] 107 % of control | [9] 104 % of control

CC(C)C(=O)OCCOC(=O)C(C)C
inactive: [13] 100 % of control | endpoint: mean survival time, dose: 200.0 mg/kg/injection, schedule: Q04DX003 (ip), vehicle: saline 97 % of control | [14] 96 % of control

COc1ccc(OC)c(OC)c1CC(C)N (centres undefined)
inactive: endpoint: mean survival time, dose: 25.0 mg/kg/injection, schedule: Q04DX002 (ip), vehicle: saline 108 % of control | endpoint: mean survival time, dose: 50.0 mg/kg/injection, schedule: Q04DX002 (ip), vehicle: saline 97 % of control | endpoint: mean survival time, dose: 100.0 mg/kg/injection, schedule: Q04DX002 (ip), vehicle: saline 91 % of control and 97 % of control

N#CNC(N)=O
inactive: endpoint: mean survival time, dose: 100.0 mg/kg/injection, schedule: Q01DX009 (ip), vehicle: saline sonified 102 % of control | endpoint: mean survival time, dose: 200.0 mg/kg/injection, schedule: Q01DX009 (ip), vehicle: saline sonified 96 % of control | endpoint: mean survival time, dose: 400.0 mg/kg/injection, schedule: Q01DX009 (ip), vehicle: saline sonified 100 % of control

O=C(CC(O)(C(F)(F)F)C(F)(F)F)c1ccc(C(=O)CC(O)(C(F)(F)F)C(F)(F)F)cc1
inactive: endpoint: mean survival time, dose: 12.5 mg/kg/injection, schedule: Q01DX009 (ip), vehicle: other 105 % of control | endpoint: mean survival time, dose: 25.0 mg/kg/injection, schedule: Q01DX009 (ip), vehicle: other 105 % of control | endpoint: mean survival time, dose: 50.0 mg/kg/injection, schedule: Q01DX009 (ip), vehicle: other 113 % of control | endpoint: mean survival time, dose: 100.0 mg/kg/injection, schedule: Q04DX003 (ip), vehicle: other 113 % of control | endpoint: mean survival time, dose: 200.0 mg/kg/injection, schedule: Q04DX003 (ip), vehicle: other 105 % of control

NC(=O)c1ccc[n+](CCN(CCCl)c2ccc3ccccc3c2)c1
inactive: endpoint: mean survival time, dose: 1.25 mg/kg/injection, schedule: Q01DX009 (ip), vehicle: Klucel (hydroxypropylcellulose) (HPC) 104 % of control | endpoint: mean survival time, dose: 2.5 mg/kg/injection, schedule: Q01DX009 (ip), vehicle: Klucel (hydroxypropylcellulose) (HPC) 107 % of control | endpoint: mean survival time, dose: 5.0 mg/kg/injection, schedule: Q01DX009 (ip), vehicle: Klucel (hydroxypropylcellulose) (HPC) 102 % of control
